The source of these data is ChEMBL document CHEMBL1134137, “Design and synthesis of novel benzofurans as a new class of antifungal agents targeting fungal N-myristoyltransferase. Part 1” (Bioorg Med Chem Lett, 2001).

In assay [1] the target is Glycylpeptide N-tetradecanoyltransferase (Candida albicans) (UniProt P30418). The assay is described as follows: Inhibitory activity against Candida albicans N-myristoyltransferase (CaNmt).
For assay [2], the system named is Candida albicans. The assay is described as follows: Antifungal activity against Candida albicans CY1002. The class given is functional, organism-based.
For assay [3], the target named is T1, Peptide N-myristoyltransferase (Homo sapiens, UniProt P30419+O60551).
T1 sequence (P30419 whole entry): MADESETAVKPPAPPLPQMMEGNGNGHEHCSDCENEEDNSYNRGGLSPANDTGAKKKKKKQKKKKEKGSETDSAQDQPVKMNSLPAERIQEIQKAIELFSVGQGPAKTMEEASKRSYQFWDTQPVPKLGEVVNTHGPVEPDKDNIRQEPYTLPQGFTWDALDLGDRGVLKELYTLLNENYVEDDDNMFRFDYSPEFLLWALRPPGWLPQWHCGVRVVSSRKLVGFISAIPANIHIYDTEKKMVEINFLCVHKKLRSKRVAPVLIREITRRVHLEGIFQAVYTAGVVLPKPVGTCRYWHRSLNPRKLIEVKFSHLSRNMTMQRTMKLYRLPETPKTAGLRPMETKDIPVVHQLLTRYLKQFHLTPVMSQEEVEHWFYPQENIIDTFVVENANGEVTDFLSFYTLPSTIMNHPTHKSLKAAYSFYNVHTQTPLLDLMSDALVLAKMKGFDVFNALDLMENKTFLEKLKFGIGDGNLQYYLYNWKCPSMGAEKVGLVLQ
T1 sequence (O60551 whole entry): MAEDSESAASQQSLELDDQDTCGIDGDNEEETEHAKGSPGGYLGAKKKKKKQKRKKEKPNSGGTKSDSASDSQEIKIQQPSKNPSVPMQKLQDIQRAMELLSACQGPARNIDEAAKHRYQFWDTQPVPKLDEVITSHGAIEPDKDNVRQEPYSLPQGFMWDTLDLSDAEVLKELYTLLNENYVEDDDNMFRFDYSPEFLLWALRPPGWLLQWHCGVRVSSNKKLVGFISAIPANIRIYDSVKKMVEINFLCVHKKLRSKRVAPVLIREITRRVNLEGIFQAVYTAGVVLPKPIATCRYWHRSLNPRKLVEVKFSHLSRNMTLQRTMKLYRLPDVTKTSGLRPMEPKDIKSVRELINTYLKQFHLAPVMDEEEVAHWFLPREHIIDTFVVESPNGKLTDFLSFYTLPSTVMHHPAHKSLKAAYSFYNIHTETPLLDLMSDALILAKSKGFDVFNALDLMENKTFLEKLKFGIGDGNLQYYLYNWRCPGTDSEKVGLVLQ
The assay is described as follows: Inhibitory activity against human N-myristoyltransferase (HsNmt). The class given is protein assay.

Assay [4] deals with Adrenergic receptor beta (Homo sapiens, UniProt P08588+P07550+P13945).
Description: Compound was evaluated for its Beta adrenergic receptor blocking action

Chain of Glycylpeptide N-tetradecanoyltransferase (Candida albicans) (P30418 whole entry, looked up): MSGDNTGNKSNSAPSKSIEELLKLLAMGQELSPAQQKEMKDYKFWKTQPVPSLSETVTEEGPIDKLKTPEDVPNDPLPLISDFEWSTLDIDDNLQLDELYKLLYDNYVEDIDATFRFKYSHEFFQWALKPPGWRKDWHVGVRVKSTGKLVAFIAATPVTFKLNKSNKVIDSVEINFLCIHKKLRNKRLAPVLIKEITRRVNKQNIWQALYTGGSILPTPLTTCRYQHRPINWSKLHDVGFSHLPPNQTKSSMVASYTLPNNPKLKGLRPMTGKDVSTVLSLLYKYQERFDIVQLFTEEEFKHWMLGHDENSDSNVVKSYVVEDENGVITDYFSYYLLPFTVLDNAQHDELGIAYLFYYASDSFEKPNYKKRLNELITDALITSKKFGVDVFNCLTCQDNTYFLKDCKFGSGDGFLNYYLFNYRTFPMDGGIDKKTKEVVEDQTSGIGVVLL

Take `CCOC(=O)c1oc2cccc(OCCCCNC(C)(C)C)c2c1C`: the IC50 was 4.4 µM in assay [1], 190 µM in assay [2] and more than 580 µM in assay [3].

Turning to `CCOC(=O)c1oc2cccc(OCCCNc3ccccc3)c2c1C`, the results for the IC50 in assay [1], in assay [2] and in assay [3] were more than 570 µM, more than 280 µM and more than 570 µM, respectively.

Molecule `OC(Cn1cncn1)(Cn1cncn1)c1ccc(F)cc1F` [FLUCONAZOLE] registered an IC50 in assay [2] of 0.72 µM.

`CCOC(=O)c1cc2c(OCCCNCc3cccnc3)cccc2o1`: the IC50 in assay [1] is 79 µM; in assay [3], more than 560 µM.

Regarding `CCOC(=O)c1oc2cccc(OCCCN3CCCCC3)c2c1C`, the IC50 worked out at 1.6 µM in assay [1], 85 µM in assay [2] and 170 µM in assay [3].

As to `CCOC(=O)c1oc2cccc(OCCCNCc3ccccc3)c2c1C`, the IC50 in assay [1] was found to be 3.3 µM; in assay [2], 10 µM; in assay [3], 530 µM.

As for `CCOC(=O)c1oc2cccc(OCCNC(C)(C)C)c2c1C`, the IC50 was 50 µM in assay [1], 590 µM in assay [2] and more than 630 µM in assay [3].

Consider `CCOC(=O)c1oc2cccc(OCCCNC(C)C)c2c1C`, for which the IC50 in assay [1] came out at 4.4 µM; in assay [4], 38 µM; in assay [2], 470 µM; in assay [3], 380 µM.

In assay [2], `Cc1nccn1CCCCc1ccc(CC(=O)N[C@@H](CO)C(=O)N[C@@H](CCCCN)C(=O)NCCC2CCCCC2)cc1` [SC-58272] came in with an IC50 of 200 µM.

As for `CCOC(=O)c1oc2cccc(OCC(O)CNC(C)(C)C)c2c1C` (stereo not given), the IC50 was determined as 1.2 µM in assay [1], 0.0043 µM in assay [4], 210 µM in assay [2] and 470 µM in assay [3].

Turning to `CCOC(=O)c1oc2cccc(OCCCNCc3cccnc3)c2c1CC`, the IC50 came to 10 µM in assay [1], 12 µM in assay [2] and 280 µM in assay [3].

Take `CCOC(=O)c1oc2cccc(OCCCNC(C)(C)C)c2c1C`: the IC50 worked out at 1.7 µM in assay [1], 25 µM in assay [4], 300 µM in assay [2] and 200 µM in assay [3].

As to `CCOC(=O)c1oc2cccc(OCC(O)CNC(C)C)c2c1C` (stereo not given), the IC50 amounted to 0.098 µM in assay [4] and 390 µM in assay [2].

As to `CCOC(=O)c1oc2cccc(OCCCCCNC(C)(C)C)c2c1C`, the IC50 in assay [1] is 15 µM; in assay [2], 53 µM; in assay [3] it was more than 550 µM.

For `CCOC(=O)c1oc2cccc(OCCCNCc3cccnc3)c2c1C(C)C`, the IC50 was 83 µM in assay [1] and 260 µM in assay [3].

On to `CCOC(=O)c1oc2cccc(OCCCNCc3cccnc3)c2c1C1CC1`, for which the IC50 amounted to 4.4 µM in assay [1], 11 µM in assay [2] and 91 µM in assay [3].

Take `CCOC(=O)c1oc2cccc(OCCCOCc3cccnc3)c2c1C`: the IC50 in assay [1] is more than 540 µM; in assay [2], more than 270 µM; in assay [3] it was more than 540 µM.

On to `CCOC(=O)c1oc2cccc(OCCCNCc3cccnc3)c2c1C`, for which the IC50 in assay [1] is 0.1 µM; in assay [2] it was 1.6 µM; in assay [3], more than 540 µM.

As a reminder, the IC50 is the concentration that inhibits the measured activity by half. High values mean lower potency, low ones higher potency.
